Data: patent publication US20080206181A1, “Hair treatment compositions containing sophora alkaloids” (Conopco Inc, d/b/a UNILEVER, priority 2007, published 2008)
Marks after values point to notes of the source that are not given here.

How the values were obtained:
[1] = Protein leaching from hair fibres (BCA protein assay kit); details: for Protein leaching from hair fibres, Average: 1% test material + 2% SDS, pH about 6.0, 10 mg hair fibres, 37° C., 24 h; for Effect on protein leaching induced by SDS (in words): summary of Table 1
Procedure: Protein leaching assays were conducted in order to find out the protective effect of test materials on protein leaching from hair.
Chinese hair fibres from the same head were washed with shampoo and air dried. Then they were immersed in ether for 2 min to remove lipid components and rinsed with running water and air. The hair fibres were cut into ˜2 mm length with scissors.
A 200 μL solution consisting of 1% test material (matrine or oxymatrine respectively) and 2% sodium dodecyl sulphate (SDS), where pH was adjusted to about 6.0 with citric acid, was incubated with 10 mg hair fibres at 37° C. for 24 h.
Protein leaching from the treated hair fibres was determined with a BCA protein assay kit.
The data were collected and analysed with One-Way ANOVA by using SPSS software. LSD was used when variances were equal, and Tamhane's T2 was used when variances were not equal.

[2] = Differential scanning calorimetry (DSC) of bleach-damaged hair fibres; details: for Average Denaturation Temperature Td / Sub From damaged (Td increase over damaged hair): bleached hair immersed in 1% aqueous solution at pH 5.5 for 1 hour; for Repair of damage caused by bleaching hair fibre (in words): summary of Table 2
Procedure: To prepare damaged hair fibre, European hair fibres were bleached with L' Oreal Platifiz precision powder and Oxydant crème (1:1.5) for 30 min, rinsed completely with running tap water and naturally dried overnight before the next application. These hair fibres were immersed in a 1% aqueous solution of test material (matrine or oxymatrine respectively) and water (as a control) at pH 5.5 (adjusted with HCl and NaOH) for 1 hour respectively, rinsed with distilled water for 30 sec and naturally dried overnight and then they were cut into ˜2 mm lengths with scissors.
For the DSC investigation a Mettler Toledo DSC823e analyser was used. About 6 mg of sample was weighed into a pressure resistant (20 bar), stainless steel, large volume pan (120 μl capacity). 50 μl of water was added and the pan was sealed. Samples were then mixed using a rotary mixer and left overnight to allow the water to equilibrate throughout the sample. Samples were run through a temperature programme of […] at a rate of 10° C./min in 30 ml/min nitrogen atmosphere. The helix transition temperature was collected and analyzed with one-way ANOVA. Each sample was carried out three times.

| SMILES | Protein leaching from hair fibres, Average ([1]; 1st Run) | Protein leaching from hair fibres, Average ([1]; 2nd Run) | Effect on protein leaching induced by SDS (in words) [1] | Average Denaturation Temperature Td ([2]; 1st run) | Sub From damaged (Td increase over damaged hair) ([2]; 1st run) [°C] | Average Denaturation Temperature Td ([2]; 1st run, listed as oxymatrine) [°C] | Average Denaturation Temperature Td ([2]; 2nd run) | Sub From damaged (Td increase over damaged hair) ([2]; 2nd run) | Repair of damage caused by bleaching hair fibre (in words) [2] | Average Denaturation Temperature Td ([2]; 1st run, listed as matrine) [°C] |
| --- | --- | --- | --- | --- | --- | --- | --- | --- | --- | --- |
| O=C1CCC[C@@H]2[C@H]3CCC[N+]4([O-])CCC[C@@H](CN12)[C@@H]34 (single isomer, unassigned; (+)) [Oxymatrine, (+)-oxymatrine] | 0.854** μg/mg | 1.035** μg/mg | reduce protein leaching | 152.24** ° C. | 9.68 | 152.24 | 150.67** ° C. | 7.49 | fully repair the damage |  |
| O=C(O)CC(O)(CC(=O)O)C(=O)O [Citric acid] |  | 1.121 µg/mg |  |  |  |  |  |  |  |  |
| O=C1CCC[C@@H]2[C@H]3CCCN4CCC[C@@H](CN12)[C@@H]34 [Matrine, (+)-matrine] | 0.792** μg/mg | 1.105* μg/mg | reduce protein leaching | 148.00** ° C. | 5.43 |  | 148.07** ° C. | 4.89 | fully repair the damage | 148 |
